According to patent US12637468B2, “Substituted [1,2,4]triazolo[4,3-b]pyridazines as GABAA receptor modulators” (SHANGHAI SIMR BIOTECHNOLOGY CO., LTD., priority 2019, dated 2026):

Target: T1, α5-GABAA receptor (Homo sapiens, UniProt P18507+P31644)
T1 construct: expressed in transfected cells; host or cells: HEK293, monoclonal stably transfected line
Test: Cell-level screening: whole cell patch clamp, inverse agonist efficacy on α5-GABAA receptor expressed in HEK293
Type: cell-based
Settings: drug 100 nM, GABA 0.05 μM, HEK293 expressing α5, β3 and γ2 subunits, clamped at −60 mV; read-out: Compound inverse agonist efficacy %
Outline: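 Whole-cell patch clamp at −60 mV on HEK293 stably expressing α5β3γ2, pH 7.4 extracellular/CsCl internal solutions. Current evoked by 0.05 μM GABA, then compound in GABA solution; screening at 100 nM, dose-response 0.3–300 nM. Inverse agonist efficacy as % change of GABA current.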

T1 sequence (P31644 32-462): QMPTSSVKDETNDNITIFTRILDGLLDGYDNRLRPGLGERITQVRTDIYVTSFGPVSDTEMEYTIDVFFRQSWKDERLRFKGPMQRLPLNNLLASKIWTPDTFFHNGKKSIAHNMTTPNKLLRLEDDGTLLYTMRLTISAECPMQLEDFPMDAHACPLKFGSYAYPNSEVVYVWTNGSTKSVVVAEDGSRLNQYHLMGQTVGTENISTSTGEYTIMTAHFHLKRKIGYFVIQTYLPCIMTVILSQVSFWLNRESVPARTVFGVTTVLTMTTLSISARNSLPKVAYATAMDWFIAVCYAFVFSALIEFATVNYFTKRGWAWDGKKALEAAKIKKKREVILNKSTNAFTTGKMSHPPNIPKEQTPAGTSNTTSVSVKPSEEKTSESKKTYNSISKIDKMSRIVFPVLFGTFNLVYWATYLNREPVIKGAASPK
T1 sequence (P28472 26-473 partner): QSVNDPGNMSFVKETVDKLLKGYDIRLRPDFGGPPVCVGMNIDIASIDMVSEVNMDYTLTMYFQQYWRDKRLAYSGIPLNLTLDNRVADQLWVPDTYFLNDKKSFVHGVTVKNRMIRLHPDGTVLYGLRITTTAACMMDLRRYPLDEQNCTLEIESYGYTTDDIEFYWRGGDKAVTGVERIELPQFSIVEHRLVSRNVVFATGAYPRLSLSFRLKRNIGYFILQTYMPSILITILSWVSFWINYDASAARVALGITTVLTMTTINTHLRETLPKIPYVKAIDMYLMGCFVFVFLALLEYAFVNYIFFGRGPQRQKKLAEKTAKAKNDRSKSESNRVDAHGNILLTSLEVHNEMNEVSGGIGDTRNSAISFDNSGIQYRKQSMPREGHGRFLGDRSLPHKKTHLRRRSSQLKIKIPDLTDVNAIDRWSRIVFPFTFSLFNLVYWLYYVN
T1 sequence (P18507 40-467 isoform P18507-1 limits assumed): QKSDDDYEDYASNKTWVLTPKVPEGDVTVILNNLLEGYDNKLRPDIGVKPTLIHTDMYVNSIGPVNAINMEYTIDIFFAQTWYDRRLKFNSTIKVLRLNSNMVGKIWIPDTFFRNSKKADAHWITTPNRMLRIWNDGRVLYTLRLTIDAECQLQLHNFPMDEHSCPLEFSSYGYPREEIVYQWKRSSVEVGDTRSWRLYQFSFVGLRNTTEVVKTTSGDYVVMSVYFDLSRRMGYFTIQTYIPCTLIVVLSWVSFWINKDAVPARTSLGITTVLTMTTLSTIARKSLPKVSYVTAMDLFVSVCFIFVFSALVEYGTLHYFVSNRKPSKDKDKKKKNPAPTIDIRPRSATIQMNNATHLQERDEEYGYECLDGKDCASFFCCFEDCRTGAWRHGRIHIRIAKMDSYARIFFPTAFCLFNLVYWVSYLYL

| Compound | inhibition at 0.1 µM [%] |
| --- | --- |
| COc1cc2nnc(-c3cc(C)on3)n2nc1OCc1ccc2c(n1)CCN(C1COC1)C2 [Embodiment 84, 3-(7-Methoxy-6-((6-(oxetan-3-yl)-5,6,7,8-tetrahydro-1,6-naphthyridin-2-yl)methoxy)-[1,2,4]triazolo[4,3-b]pyridazin-3-yl)-5-methylisoxazole] | 39.6 |
| COc1cc2nnc(-c3cc(C)on3)n2nc1OCc1ccc(C2(F)CN(C3COC3)C2)cn1 [Embodiment 128] | 41.2 |
| COCCCOc1ccc(COc2nn3c(-c4noc(C)n4)nnc3cc2OC)nn1 [Embodiment 129] | 45.8 |
| COCc1ccc(COc2nn3c(-c4cc(C)on4)nnc3cc2OC)nn1 [Embodiment 151] | 55.8 |
| COc1cc2nnc(-c3cc(C)on3)n2nc1OCc1ccc(OC2CCOCC2)nn1 [Embodiment 152] | 39.3 |
| COc1cc2nnc(-c3cc(C)on3)n2nc1OCc1ccc(OC2COC2)nn1 [Embodiment 153] | 49.4 |
| COc1cc2nnc(-c3cc(C)on3)n2nc1OCc1ccc(OC2CCOC2)nn1 (centres unmarked) [Embodiment 154] | 45.2 |

Results, then the molecule that gave them:

| inhibition at 0.1 µM [%] | Compound |
| --- | --- |
| 49.3 | COc1cc2nnc(-c3cc(C)on3)n2nc1OCc1ccc2c(n1)CN(C)C2 [Embodiment 160, 3-(7-Methoxy-6-((6-methyl-6,7-dihydro-5H-pyrrolo[3,4-b]pyridin-2-yl)methoxy)-[1,2,4]triazolo[4,3-b]pyridazin-3-yl)-5-methylisoxazole] |
| 49.9 | COCCOCc1ccc(COc2nn3c(-c4cc(C)on4)nnc3cc2OC)nn1 [Embodiment 166] |
| 45.6 | COc1cc2nnc(-c3cc(C)on3)n2nc1OCc1ccc2c(n1)CCN(C(CO)CO)C2 [Embodiment 185] |
| 56 | COc1cc2nnc(-c3cc(C)on3)n2nc1OCc1ccc2c(n1)CCN(C1CCOCC1)C2 [Embodiment 186] |
| 50.4 | COc1cc2nnc(-c3cc(C)on3)n2nc1OCc1ccc2c(n1)CCN(Cc1cc(C)on1)C2 [Embodiment 187] |
| 59.5 | COCc1cn2nc(COc3nn4c(-c5cc(C)on5)nnc4cc3OC)ccc2n1 [Embodiment 213] |
| 56.1 | COc1cc2nnc(-c3cc(C)on3)n2nc1OCc1ccc2c(n1)CN(C1CCOCC1)C2 [Embodiment 253] |
